Measurements from patent publication US11286263B2, “Macrocyclic fluorine substituted indole derivatives” (The Broad Institute, Inc., priority 2017, dated 2022).
Where “and” joins values, the source holds several entries; their conditions need not be identical. Equal values may be shown once. Read-outs that look alike come from different tables or passages of the source.

Experiments:
[1] = target: BCL-2 (Homo sapiens (Human), UniProt P10415); assay: Protein-protein interaction assay BCL-2/Bad BH3 peptide (BCL-2 assay), TR-FRET; format: binding; conditions: BCL-2/Bad BH3 peptide TR-FRET; median
BCL-2, sequence (P10415 1-211): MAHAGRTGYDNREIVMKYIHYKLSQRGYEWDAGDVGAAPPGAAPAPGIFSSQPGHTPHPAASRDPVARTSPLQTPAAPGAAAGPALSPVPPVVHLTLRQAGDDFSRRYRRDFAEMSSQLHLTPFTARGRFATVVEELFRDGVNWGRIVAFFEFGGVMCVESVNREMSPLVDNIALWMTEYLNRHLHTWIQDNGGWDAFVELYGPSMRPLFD
Experimental: Assay 3 Protein-Protein Interaction assay: BCL-2/Bad BH3 Peptide (BCL-2 Assay)
The dose-dependent inhibition by the compounds described in this invention of the interaction between BCL-2 and the BH3 domain of Bad (both human) was determined using a steady state binding competition assay with time-resolved fluorescence energy transfer (TR-FRET) readout. For that purpose BCL-2 (amino acids 1-211, C-terminal fused to a hexahistidine (6× His) tag (SEQ ID 5) and a synthetic Bad BH3-derived peptide of sequence Biotin-PEG2-PEG2-NLWAAQRYGRELRR-Nle-SDEFVDSFKK-amide (SEQ ID 4) served as protein receptor and tracer ligand respectively. The recombinant BCL-2 protein (expressed in E. coli) was purchased from BPS Bioscience (San Diego, Calif., USA). The Bad BH3-derived peptide can be obtained from e.g. Biosyntan (Berlin, Germany).
In the assay 11 different concentrations of each compound (0.1 nM, 0.33 nM, 1.1 nM, 3.8 nM, 13 nM, 44 nM, 0.15 μM, 0.51 μM, 1.7 μM, 5.9 μM and 20 μM) were typically measured as duplicates in the same microtiter plate. For that, 100-fold concentrated DMSO solutions were prepared by serial dilutions (1:3.4) of a 2 mM stock solution in a clear, 384-well microtiter plate (Greiner Bio-One, Frickenhausen, Germany). From there, 50 nl were transferred in a dark test plate (Greiner Bio-One, Frickenhausen, Germany). The assay was initiated by addition of 2 μl of a 2,5-fold concentrated His-BCL-2 solution (usually for a 1 nM end concentration in 5 μl reaction volume) in aqueous assay buffer [50 mM Tris/HCl pH 7, 100 mM sodium chloride (NaCl), 50 mM potassium fluoride (KF), 0.005% Tween-20, 2 mM DTT, 0.1% bovine gamma globulin (BGG)] to the compounds in the assay plate. This was followed by a 10-minute incubation step at 22° C. for pre-equilibration of the putative complex between His-BCL-2 and the compounds. After that, 3 μl of a 1.67-fold concentrated solution (in assay buffer) consisting of Bad BH3-derived peptide (1 nM end concentration) and TR-FRET detection reagents [1.67 nM anti-His-Eu cryptate and 1.67 nM streptavidin-XL665 (both from Cisbio Bioassays, Codolet, France)], were added.
The mixture was incubated in the dark for one hour at 22° C. and then overnight at 4° C. The formation of BCL-2/Bad complexes was determined by measuring the resonance energy transfer of the anti-His-Eu-cryptate antibody to the streptavidin-XL665 present in the reaction. For that purpose, the fluorescence emission at 620 nm and 665 nm after excitation at 330-350 nm was measured in a TR-FRET measuring instrument, for instance a Rubystar or a Pherastar (both from BMG Lab Technologies, Offenburg, Germany) or a Viewlux (Perkin-Elmer). The ratio of the emission at 665 nm and at 622 nm was used as indicator of the amount of BCL-2/Bad complexes present.
The resulting data (ratio) were normalized, taking 0% inhibition as the mean value of control measurements (usually 32 data points) where all reagents were included. In this case 50 nl DMSO were used instead of compounds. A 100% inhibition corresponded to the mean value of control measurements (usually 32 data points) where all reagents except BCL-2 were included. IC50 values were determined by regression analysis based on a 4 parameter equation (minimum, maximum, IC50, Hill; Y=Max+(Min−Max)/(1+(X/IC50)^Hill) using the Screener Software (Genedata).

[2] = tested on: SUDHL5; assay: Induction of caspase-3/7 activity, SUDHL5 (Assay 4); format: cell-based; conditions: SUDHL5 cells
Method in brief: (§1)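 DLBCL lines treated with compounds for 3 h at 37° C.; caspase-3/7 activity read by Caspase-Glo 3/7 luminescence. Medium-only background subtracted; EC50 fitted with bottom fixed at 1 and top set to reference compound's maximal induction.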

[3] = tested on: SUDHL10; assay: Induction of caspase-3/7 activity, SUDHL10 (Assay 4); format: cell-based; conditions: SUDHL10 cells
Method in brief: as §1

[4] = tested on: SUDHL5; assay: Antiproliferation assay SUDHL5 (Assay 7); format: cell-based; conditions: SUDHL5 cells, CellTiter-Glo, median, read-out: IC50 Antiproli SUDHL5 [M] (median)
Method in brief: (§2)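 A reference plate measured at day 0 set the time-zero baseline. Treated plates were read by CellTiter-Glo luminescence after 72 h of compound exposure at 37°C in a humidified incubator.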

[5] = tested on: A2780; assay: Antiproliferation assay A2780 (Assay 7); format: cell-based; conditions: A2780 cells, CellTiter-Glo, single determinations, read-out: IC50 Antiproli A2780
Method in brief: as §2

[6] = tested on: SUDHL5; assay: Induction of cytotoxicity, SUDHL5 (Assay 6); conditions: read-out: IC50 Cytotox SUDHL5 [M] (median), SUDHL5 cells, 5 h, CellTiter-Glo
[7] = tested on: SUDHL10; assay: Induction of cytotoxicity, SUDHL10 (Assay 6); conditions: read-out: IC50 Cytotox SUDHL10 [M] (median), SUDHL10 cells, 5 h, CellTiter-Glo
[8] = tested on: AMO-1; assay: Antiproliferation assay AMO-1 (Assay 7); format: cell-based; conditions: AMO-1 cells, 72 h, CellTiter-Glo; single determinations; read-out: IC50 Antiproli AMO-1
Method in brief: as §2

[9] = Homo sapiens, SU-DHL-5, 3 h, Caspase-Glo 3/7, median
[10] = Homo sapiens, SU-DHL10, 3 h, Caspase-Glo 3/7, median

SMILES | IC50 [1] [µM] | EC50 [2, 9] [µM] | EC50 [3, 10] [µM] | IC50 ([4]; Homo sapiens, SU-DHL-5, 72 h) [M] | IC50 ([5]; 72 h, listed as 01) [µM] | IC50 ([5]; Homo sapiens, A2780, 72 h) [µM] | IC50 ([5]; 72 h, listed as 05) | IC50 ([5]; 72 h, listed as 09) [µM] | IC50 ([5]; 72 h) [µM] | EC50 ([2]; 3 h, Caspase-Glo 3/7, median) [µM] | EC50 ([3]; 3 h, Caspase-Glo 3/7, median) [µM] | IC50 ([4]; 72 h) [M] | IC50 ([6]; Homo sapiens, SU-DHL-5, 5 h) [M] | IC50 ([7]; Homo sapiens, SU-DHL10, 5 h) [M] | IC50 [8] [µM] | IC50 [6] [M] | IC50 [7] [M]
Cc1nn(C)c2c1-c1c(F)ccc3c(CCCOc4ccc(F)c5ccccc45)c(C(=O)O)n(c13)CCCCOC2 (racemic) [Example 33, (rac)-13-fluoro-1-(3-((4-fluoronaphthalen-1-yl)oxy)propyl)-10,12-dimethyl-4,5,6,7,9,10-hexahydropyrazolo[4′,3′:9,10][1]oxa[6]azacycloundecino[8,7,6-hi]indole-2-carboxylic acid] | > 20 | 2.9 | 9.1 | 3e-06 | – | 23.3 | – | – | – | – | – | – | 3.5e-06 | 8.4e-06 | – | – | –
Cc1nn(C)c2c1-c1c(F)ccc3c(CCCOc4cccc5c4CCC5)c(C(=O)O)n(c13)CCCCOC2 (racemic) [Example 35, (rac)-1-(3-((2,3-dihydro-1H-inden-4-yl)oxy)propyl)-13-fluoro-10,12-dimethyl-4,5,6,7,9,10-hexahydropyrazolo[4′,3′:9,10][1]oxa[6]azacycloundecino[8,7,6-hi]indole-2-carboxylic acid] | > 20 | 6.2 | 20 | 6e-06 | – | 15 | – | – | – | – | – | – | 7.1e-06 | 1.5e-05 | – | – | –
Cc1c2c(nn1C)COCCCCn1c(C(=O)O)c(CCCOc3ccc(F)c4ccccc34)c3ccc(F)c-2c31 (single isomer, unassigned; enantiomer 1) [Example 16, 4-fluoro-7-{3-[(4-fluoronaphthalen-1-yl)oxy]propyl}-2,3-dimethyl-2,10,11,12,13,15-hexahydro-pyrazolo[4′,3′:9,10][1,6]oxazacycloundecino[8,7,6-hi]indole-8-carboxylic acid (enantiomer 1)] | > 20 | – | – | – | – | – | – | – | – | 0.72 | 4.1 | 9.3e-07 | – | – | 6.95 | 1.4e-06 | 4.3e-06
CCc1nn(C)c2c1-c1c(F)ccc3c(CCCOc4ccc(F)c5ccccc45)c(C(=O)O)n(c13)CCCCOC2 (single isomer, unassigned; enantiomer 1) [Example 42, 3-ethyl-4-fluoro-7-{3-[(4-fluoronaphthalen-1-yl)oxy]propyl}-1-methyl-1,10,11,12,13,15-hexahydropyrazolo[4′,3′:9,10][1,6]oxazacycloundecino[8,7,6-hi]indole-8-carboxylic acid (enantiomer 1)] | > 20 | – | – | – | – | – | – | – | – | 1.8 | 6.3 | 2.1e-06 | – | – | 6.96 | 2e-06 | 9.6e-06

Second part, led by results:

IC50 [1] [µM] | EC50 [2, 9] [µM] | EC50 [3, 10] [µM] | IC50 ([4]; Homo sapiens, SU-DHL-5, 72 h) [M] | IC50 ([5]; 72 h, listed as 01) [µM] | IC50 ([5]; Homo sapiens, A2780, 72 h) [µM] | IC50 ([5]; 72 h, listed as 05) | IC50 ([5]; 72 h, listed as 09) [µM] | IC50 ([5]; 72 h) [µM] | EC50 ([2]; 3 h, Caspase-Glo 3/7, median) [µM] | EC50 ([3]; 3 h, Caspase-Glo 3/7, median) [µM] | IC50 ([4]; 72 h) [M] | SMILES | IC50 ([6]; Homo sapiens, SU-DHL-5, 5 h) [M] | IC50 ([7]; Homo sapiens, SU-DHL10, 5 h) [M] | IC50 [8] [µM] | IC50 [6] [M] | IC50 [7] [M]
> 20 | 1.4 | 2.5 | 9e-07 | 21.1 | > 33 | – | – | – | – | – | – | Cc1c2c(nn1C)COC/C=C\Cn1c(C(=O)O)c(CCCOc3cccc4ccccc34)c3ccc(F)c-2c31 (racemic) [Example 1, (rac)-(11Z)-4-fluoro-2,3-dimethyl-7-[3-(naphthalen-1-yloxy)propyl]-2,10,13,15-tetrahydro-pyrazolo[4′,3′:9,10][1,6]oxazacycloundecino[8,7,6-hi]indole-8-carboxylic acid] | 1.2e-06 | 3.8e-06 | – | – | –
> 20 | 1 | 3.5 | 1.7e-06 | – | 25.4 | 28.1 µM and 20.8 µM and 27.7 µM | – | – | – | – | – | CCc1c2c(nn1C)COC/C=C\Cn1c(C(=O)O)c(CCCOc3cccc4ccccc34)c3ccc(F)c-2c31 (racemic) [Example 5, (rac)-(11Z)-3-ethyl-4-fluoro-2-methyl-7-[3-(naphthalen-1-yloxy)propyl]-2,10,13,15-tetrahydro-pyrazolo[4′,3′:9,10][1,6]oxazacycloundecino[8,7,6-hi]indole-8-carboxylic acid] | 1.5e-06 | 3.2e-06 | – | – | –
> 20 | 2.7 | 18 | 3.7e-06 | – | 23.1 | – | 20.7 | – | – | – | – | Cc1nn(C)c2c1-c1c(F)ccc3c(CCCOc4cccc5ccccc45)c(C(=O)O)n(c13)C/C=C\COC2 (racemic) [Example 9, (rac)-(Z)-13-fluoro-10,12-dimethyl-1-(3-(naphthalen-1-yloxy)propyl)-4,7,9,10-tetrahydro-pyrazolo[4′,3′:9,10][1]oxa[6]azacycloundecino[8,7,6-hi]indole-2-carboxylic acid] | 2.9e-06 | 1.5e-05 | – | – | –
> 20 | 1.7 | 7.8 | 1.8e-06 | – | > 33 | – | – | – | – | – | – | Cc1nn(C)c2c1-c1c(F)ccc3c(CCCOc4cccc5ccccc45)c(C(=O)O)n(c13)CCCCOC2 (racemic) [Example 10, (rac)-13-fluoro-10,12-dimethyl-1-(3-(naphthalen-1-yloxy)propyl)-4,5,6,7,9,10-hexahydro-pyrazolo[4′,3′:9,10][1]oxa[6]azacycloundecino[8,7,6-hi]indole-2-carboxylic acid] | 1.8e-06 | 3.6e-06 | – | – | –
> 20 | 2.1 | 6.5 | 2.8e-06 | – | 15.3 | – | – | 23.5 | – | – | – | CCc1nn(C)c2c1-c1c(F)ccc3c(CCCOc4cccc5ccccc45)c(C(=O)O)n(c13)C/C=C\COC2 (racemic) [Example 11, (rac)-(Z)-12-ethyl-13-fluoro-10-methyl-1-(3-(naphthalen-1-yloxy)propyl)-4,7,9,10-tetrahydro-pyrazolo[4′,3′:9,10][1]oxa[6]azacycloundecino[8,7,6-hi]indole-2-carboxylic acid] | 2.3e-06 | 7.2e-06 | – | – | –
